Usually melting point stands for the temperature of the solid-liquid transition.

As to `O=C(Cc1cccs1)Nc1ccc(C(CC2CCCC2)C(=O)Nc2nccs2)cc1` (stereo not drawn) [Example 2, 3-Cyclopentyl-N-thiazol-2-yl-2-[4-(2-thiophen-2-yl-acetylamino)-phenyl]-propionamide], the melting point lay within 220 to 221 °C.

The compound `CCOC(=O)c1csc(NC(=O)C(CC2CCCC2)c2ccc(NC(=O)c3cccnc3)cc2)n1` (stereo not drawn) [Example 10, 2-(3-Cyclopentyl-2-{4-[(pyridine-3-carbonyl)-amino]-phenyl}propionylamino)-thiazole-4-carboxylic acid ethyl ester] yielded a melting point of 222 to 223 °C.

Take `O=C(Nc1ccc(C(CC2CCCC2)C(=O)Nc2nccs2)cc1)c1ccncc1` (stereo not drawn) [Example 4, N-{4-[2-Cyclopentyl-1-(thiazol-2-ylcarbamoyl)-ethyl]-phenyl}-isonicotinamide]: the melting point was in the range of 225 to 230 °C.

Turning to `CN(C)S(=O)(=O)Nc1ccc(C(CC2CCCC2)C(=O)Nc2nccs2)cc1` (stereo not drawn) [Example 8, N-{4-[2-Cyclopentyl-1-(thiazol-2-ylcarbamoyl)-ethyl]-phenyl}-dimethylsulfamide], the melting point fell in the range of 110 to 112 °C.

Turning to `O=C(Nc1ccc(C(CC2CCCC2)C(=O)Nc2ccccn2)cc1)c1cccnc1` (stereo not drawn) [Example 15, N-{4-[2-Cyclopentyl-1-(pyridin-2-ylcarbamoyl)-ethyl]-phenyl}-nicotinamide], the melting point was 160 to 163 °C.

`O=C(Nc1ccc(C(CC2CCCC2)C(=O)Nc2nccs2)cc1)c1ccc([N+](=O)[O-])cc1` (stereo not drawn) [Example 5, N-{4-[2-Cyclopentyl-1-(thiazol-2-ylcarbamoyl)-ethyl]-phenyl}-4-nitro-benzamide] showed a melting point of 236 to 238 °C.

As to `COC(=O)c1ccc(NC(=O)C(CC2CCCC2)c2ccc(NC(=O)c3cccnc3)cc2)nc1` (stereo not drawn) [Example 16, 6-(3-Cyclopentyl-2-{4-[(pyridine-3-carbonyl)-amino]-phenyl}-propionylamino)-nicotinic acid methyl ester], the melting point is 110 to 111 °C.

Compound `O=C(Nc1ccc(C(CC2CCCC2)C(=O)Nc2nccs2)cc1)c1cccnc1` (stereo not drawn) [Example 9, N-{4-[2-Cyclopentyl-1-(thiazol-2-ylcarbamoyl)-ethyl]-phenyl}-nicotinamide] had a melting point of 240 to 242 °C.

Turning to `O=C(Nc1nccs1)C(CC1CCCC1)c1ccc(NS(=O)(=O)c2ccc([N+](=O)[O-])cc2)cc1` (stereo not drawn) [Example 3, 3-Cyclopentyl-2-[4-(4-nitro-benzenesulfonylamino)-phenyl]-N-thiazol-2-yl-propionamide], the melting point was in the range of 120 to 125 °C.

For `COC(=O)C(=O)Nc1ccc(C(CC2CCCC2)C(=O)Nc2nccs2)cc1` (stereo not drawn) [Example 6, N-{4-[2-Cyclopentyl-1-(thiazol-2-ylcarbamoyl)-ethyl]-phenyl}-oxalamic acid methyl ester], the melting point fell in the range of 95 to 98 °C.

Compound `CCOC(=O)Cc1csc(NC(=O)C(CC2CCCC2)c2ccc(NC(=O)c3cccnc3)cc2)n1` (stereo not drawn) [Example 11, [2-(3-Cyclopentyl-2-{4-[(pyridine-3-carbonyl)-amino]-phenyl}-propionylamino)-thiazol-4-yl]-acetic acid ethyl ester] displayed a melting point of 195 to 200 °C.

As for `CC(=O)OCC(=O)Nc1ccc(C(CC2CCCC2)C(=O)Nc2nccs2)cc1` (stereo not drawn) [Example 7, Acetic acid {4-[2-cyclopentyl-1-(thiazol-2-ylcarbamoyl)-ethyl]-phenylcarbamoyl}-methyl ester], the melting point lay in the range of 90 to 95 °C.

`O=C(Nc1ccc(C(CC2CCCC2)C(=O)Nc2nccs2)cc1)c1ccccc1` (stereo not drawn) [Example 1] returned a melting point of 285 to 290 °C.

As for `O=C(Nc1nccs1)C(CC1CCCC1)c1ccc(NS(=O)(=O)C(F)(F)F)cc1` (stereo not drawn) [Example 13, 3-Cyclopentyl-N-thiazol-2-yl-2-(4-trifluoromethanesulfonylamino-phenyl)-propionamide], the melting point lay in the range of 70 to 74 °C.

For `CS(=O)(=O)Nc1ccc(C(CC2CCCC2)C(=O)Nc2nccs2)cc1` (stereo not drawn) [Example 12, 3-Cyclopentyl-2-(4-methanesulfonylamino-phenyl)-N-thiazol-2-yl-propionamide], the melting point was 85 to 90 °C.

(Values after patent US6489485B2, “Para-amine substituted phenylamide glucokinase activators” (Hoffmann-La Roche Inc., priority 2000, dated 2002).)
